From paper PMC4838876, “Multivalent display of minimal Clostridium difficile glycan epitopes mimics antigenic properties of larger glycans” (Nature Communications, 2016)

Experiments:
[1] = test system: mAb 2C5 (anti-PS-I IgG1); assay: Kinetic SPR of glycans binding to captured mAb 2C5; parameters: species or system mouse; conditions: for off-rate: mAb 2C5; for Kd: mAb 2C5, PBS, 25 °C
Method: (§1) Kinetic SPR experiments were performed to determine the binding strengths of the mAbs to PS-I glycans expressed as dissociation constants (KD)[8] (Fig. 5a). […] Overall, the SPR measurements (summarized in Table 1) confirmed results obtained by glycan microarray presented above.
(§2) Figure 5 KD values of anti-PS-I mAbs binding to 1 and 3 inferred by SPR. (a) mAbs were captured with an anti-mouse IgG antibody immobilized on the SPR sensor surface. Glycan antigens were passed over the surface to monitor changes in the response unit signals. (b,c) Representative sensorgrams showing reference-subtracted binding signals to 1 (b) and 3 (c). KD values were calculated by fitting the curves to a 1:1 Langmuir binding model (black overlaid curves) or with a steady-state affinity model (response units versus concentration plots). Indicated KD values are mean±s.e.m. of n=3 or mean with minimum and maximum values in parentheses of n=2 independent experiments. See Supplementary Figs 3–5 for details.
(§3) Binding analyses were carried out on a Biacore T100 instrument (GE Healthcare). CM5 sensor chips were functionalized with about 10,000 RUs of α-mouse IgG capture antibody, using the Mouse Antibody Capture Kit and the Amine Coupling Kit (GE Healthcare) according to the manufacturer's recommendations. A blank-immobilized flow cell was used as reference, to compensate for nonspecific binding of antibodies or oligosaccharides to the sensor chip surface. Kinetic measurements were performed with the Biacore T100 Control software using the ‘Kinetics' function. PBS was used as running buffer and all measurements were performed at 25 °C and a flow rate of 30 μl min^−1. About 500 RUs of mAbs were captured at a concentration of 50 μg ml^−1 diluted in PBS and oligosaccharides or OAAs (in PBS) at the indicated concentrations were passed through, using the standard parameters for association and dissociation times unless mentioned otherwise. Flow cells were regenerated with 10 mM glycine-HCl pH 1.7 for 30 s. Kinetic evaluation of binding responses was performed with the Biacore T100 Evaluation software, using reference-subtracted sensorgrams. Two different kinetic models, a 1:1 binding Langmuir model and a two-state reaction model, which assumes a conformational change in the antibody–analyte complex, were used to fit the data. The fitting quality was evaluated by investigating respective residual plots, χ^2 and s.e. values for on- and off-rates. Both models yielded similar good fittings. We chose the 1:1 binding model over the two-state reaction model to calculate on- and off-rates, as well as KD values, as this model makes fewer assumptions. When on-rates and/or off-rates were outside of the measurable ranges of the instrument, the steady-state affinity model was used instead to determine KD values. The 1:1 binding model was generally preferred over the steady-state affinity model in cases where both could be applied. In these cases, the two models yielded roughly similar KD values. Thermodynamic parameters were inferred by using the ‘Thermodynamics' function of the Biacore T100 Control software with the same experimental set-up described above. Temperatures from 13 to 37 °C were chosen. Values for ΔG, ΔH and ΔS were inferred by van't Hoff analysis. IM analysis was carried out by Ridgeview Diagnostics AB, Uppsala, Sweden.
Supplementary Figure 3 | KD values of mAb 2C5 to PS‐I oligosaccharide antigens inferred by SPR. […]

[2] = target: mAb 10A1 (anti-PS-I IgG1); assay: Kinetic SPR of glycans binding to captured mAb 10A1; parameters: species or system mouse; conditions: mAb 10A1, PBS, 25 °C, mean (min;max) n=2
Method: as §1, §2
Binding analyses were carried out on a Biacore T100 instrument (GE Healthcare). […] The fitting quality was evaluated by investigating respective residual plots, χ^2 and s.e. values for on- and off-rates. […]

[3] = target: mAb 10D6 (anti-PS-I IgG1); assay: Kinetic SPR of glycans binding to captured mAb 10D6; parameters: species or system mouse; conditions: mAb 10D6, PBS, 25 °C, mean±s.e.m. n=3 or mean (min;max) n=2
Method: as §1
Binding analyses were carried out on a Biacore T100 instrument (GE Healthcare). CM5 sensor chips were functionalized with about 10,000 RUs of α-mouse IgG capture antibody, using the Mouse Antibody Capture Kit and the Amine Coupling Kit (GE Healthcare) according to the manufacturer's recommendations. A blank-immobilized flow cell was used as reference, to compensate for nonspecific binding of antibodies or oligosaccharides to the sensor chip surface. Kinetic measurements were performed with the Biacore T100 Control software using the ‘Kinetics' function. PBS was used as running buffer and all measurements were performed at 25 °C and a flow rate of 30 μl min^−1. About 500 RUs of mAbs were captured at a concentration of 50 μg ml^−1 diluted in PBS and oligosaccharides or OAAs (in PBS) at the indicated concentrations were passed through, using the standard parameters for association and dissociation times unless mentioned otherwise. […] The fitting quality was evaluated by investigating respective residual plots, χ^2 and s.e. values for on- and off-rates. […]
All sensorgrams were recorded on a Biacore T100 instrument (GE […]

[4] = test system: anti-PS-I mAbs 2C5, 10A1 and 10D6; assay: Kinetic SPR, summary over the three anti-PS-I mAbs; assay type: binding, mouse; conditions: for Kd: SPR, range over mAbs 2C5, 10A1, 10D6
Method: as §1
as §3, with “The 1:1 binding model was generally preferred over the steady-state affinity model in cases where both could be applied. In these cases, the two models yielded roughly similar KD values. Thermodynamic parameters were inferred by using the ‘Thermodynamics' function of the Biacore T100 Control software with the same experimental set-up described above. Temperatures from 13 to 37 °C were chosen. Values for ΔG, ΔH and ΔS were inferred by van't Hoff analysis. IM analysis was carried out by Ridgeview Diagnostics AB, Uppsala, Sweden.” left out

[5] = mean±s.e.m. n=3 or mean (min;max) n=2

Q: For `C[C@@H]1O[C@@H](O[C@@H]2[C@@H](O)[C@H](O[C@H]3[C@H](O[C@@H]4O[C@@H](C)[C@H](O)[C@@H](O)[C@H]4O)[C@@H](O)[C@@H](O[C@H]4[C@@H](OCCCCCN)O[C@H](CO)[C@@H](O)[C@@H]4O)O[C@@H]3CO)O[C@H](CO)[C@H]2O)[C@H](O)[C@H](O)[C@H]1O` [Compound 1], which off-rate [1] is on record?
A: 0.0019 s⁻¹

Q: What about the Kd [1, 5] of the same compound?
A: 0.163 ± 0.023 µM

Q: What about the off-rate koff ([1]; mAb 2C5, dissociation model fit, mean±s.e.m. n=3 or mean (min;max) n=2) of the same compound?
A: 1.6±0.1 × 10^-3 s^-1

Q: What about the Kd [2] of the same compound?
A: 0.245 µM

Q: What about the Kd [3] of the same compound?
A: 0.169 µM

Q: What about the “fold lower KD values than minimal glycan epitope 3” value ([4]; KD of 1 compared with 3) of the same compound?
A: about 100 fold

Q: And the Kd [4]?
A: 0.163 to 0.245 µM

Q: How did the off-rate [1] turn out when `C[C@@H]1O[C@@H](O[C@@H]2[C@@H](O)[C@H](OCCCCCN)O[C@H](CO)[C@H]2O)[C@H](O)[C@H](O)[C@H]1O` [Compound 3, Rha-(1→3)-Glc] was run?
A: 0.0016 s⁻¹

Q: And the Kd [1, 5]?
A: 18 µM

Q: And the Kd [2]?
A: 5.9 µM

Q: And the Kd [3]?
A: 37.5 ± 0.4 µM

Q: What about the Kd [4] of the same compound?
A: 5.9 to 37.5 µM
